Patent US7687484B2, “Transporter enhanced corticosteroid activity” (priority 2006, dated 2010)
Like-named read-outs stand apart in the source and are kept apart here. Blank lines part the entries; values can stand above or below the molecule they belong to.

Tests used:
transcortin (CBG) = target: T1, transcortin (CBG) (Homo sapiens, UniProt P08185); test: Binding of corticosteroids to transcortin: 3H-cortisol competition in charcoal-treated diluted plasma
T1 construct: from tissue; host or cells: plasma from venous blood of healthy volunteers, charcoal-treated, diluted 100-fold
T1 sequence (P08185 23-405): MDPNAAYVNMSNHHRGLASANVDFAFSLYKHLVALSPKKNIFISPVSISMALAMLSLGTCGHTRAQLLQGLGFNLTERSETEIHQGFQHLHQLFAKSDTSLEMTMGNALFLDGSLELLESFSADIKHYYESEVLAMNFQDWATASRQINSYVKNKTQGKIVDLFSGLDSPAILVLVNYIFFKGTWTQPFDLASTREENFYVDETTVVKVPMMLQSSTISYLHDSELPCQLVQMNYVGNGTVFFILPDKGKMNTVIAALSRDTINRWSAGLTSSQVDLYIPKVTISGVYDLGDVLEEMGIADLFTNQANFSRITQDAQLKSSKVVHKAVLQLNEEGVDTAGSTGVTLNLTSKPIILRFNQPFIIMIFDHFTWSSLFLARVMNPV
Procedure: Experimental procedure: Venous blood was collected from healthy volunteers into heparin-containing tubes (5 Us/100 ml serum) and cells were separated from plasma by centrifugation (1500 g for 15 min). […] Charcoal-treated plasma was diluted 100-fold with binding buffer (10 mM Tris-HCl; 2 mM DTT (dithiotreitol); 1.5 mM EDTA; 0.02 M Na2MoO4; 10% Glycerol; pH 7.4) and was stored aliquoted at −80° C. […] The assay ingredients were mixed and the tubes were incubated for 1 hour on ice. At the end of the incubation, 0.2 ml of charcoal suspension (0.5% Norit A and 0.05% BSA) was added to each tube. The tubes were briefly agitated and incubated for an additional 10 min at 0° C. They were then centrifuged for 10 min at 15 000 g, and the same aliquots from the clear supernatants were quantitatively decanted into counting vials and combined with 3 ml of toluene-based scintillation fluid. […] Specific binding and IC50-values were calculated.

glucocorticoid receptor [1] = target: T2, glucocorticoid receptor (Homo sapiens, UniProt P04150); test: Relative binding affinity for the glucocorticoid receptor (GCR/GR); conditions: GRs were calculated from RBAs; read-out: GR Est. IC50
T2 sequence (P04150 1-777): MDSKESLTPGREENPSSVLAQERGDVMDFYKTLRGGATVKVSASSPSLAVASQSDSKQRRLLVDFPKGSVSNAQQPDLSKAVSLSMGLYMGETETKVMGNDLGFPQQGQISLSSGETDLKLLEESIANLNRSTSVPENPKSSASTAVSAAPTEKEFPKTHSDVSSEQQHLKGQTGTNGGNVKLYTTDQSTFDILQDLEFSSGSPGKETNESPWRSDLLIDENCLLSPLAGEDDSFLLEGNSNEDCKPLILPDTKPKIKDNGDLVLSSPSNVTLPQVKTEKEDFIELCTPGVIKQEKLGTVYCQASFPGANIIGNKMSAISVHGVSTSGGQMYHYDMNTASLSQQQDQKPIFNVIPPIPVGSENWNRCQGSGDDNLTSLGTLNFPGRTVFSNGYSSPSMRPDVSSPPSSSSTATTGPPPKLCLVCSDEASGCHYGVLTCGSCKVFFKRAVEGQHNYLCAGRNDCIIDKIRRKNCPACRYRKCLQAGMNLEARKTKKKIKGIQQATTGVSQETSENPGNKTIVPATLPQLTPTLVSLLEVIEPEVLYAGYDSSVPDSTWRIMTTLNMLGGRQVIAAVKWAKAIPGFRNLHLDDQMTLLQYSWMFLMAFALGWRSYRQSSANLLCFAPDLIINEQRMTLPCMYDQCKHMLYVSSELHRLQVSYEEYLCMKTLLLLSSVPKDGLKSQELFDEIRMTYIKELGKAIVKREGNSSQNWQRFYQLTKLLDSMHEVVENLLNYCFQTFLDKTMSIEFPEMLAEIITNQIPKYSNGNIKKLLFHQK

[2] = logP reported in literature; cited from earlier work
[3] = tested on: forearms of human volunteers; test: Human vasoconstriction (blanching) testing; assay type: in vivo; design: key to Vasoconstriction activity (total score of 4 tests): sum of 4 tests, each 0 = normal skin to 4 = very intense pallor
Procedure: Solutions of LE, HC and PRN (0.1 or 1 mM) alone, or mixtures of LE and HC (0.1+0.1 mM, or 1+1 mM), or LE and PRN (0.1+0.1 mM, or 1+1 mM) were prepared with a vehicle containing absolute ethanol and propylene glycol (9:1). […] After evaporation of ethanol (20 min), the films were applied to the forearms of human volunteers for 4 hours. Subsequently, the vasoconstriction reaction was read and judged by the appearance of pallor at various time intervals after the removal of the discs and films. The grading scale was as follows: 0, normal skin; 1, slight pallor; 2, pallor with at least two corners outlined; 3, even pallor with a clear outlined of the application sites; 4, very intense pallor. Due to the relatively high variations in response between the volunteers, a total score of 4 tests at each time point was taken for the activity evaluation.

[4] = anti-inflammatory activity, LE vs hydrocortisone; cited from earlier work
glucocorticoid receptor [5] = target: T2, glucocorticoid receptor; conditions: cited from earlier work
[6] = 3 nM 3H-cortisol, 1 hour on ice, plasma diluted 100-fold, read-out: IC50-values (nM) average ± SEM (n)
[7] = estimated, unpublished results Bodor, Kurucz 2006, read-out: CBG Est. IC50

IC50 (transcortin (CBG); [6]): 31 ± 11 nM | IC50 (transcortin (CBG); [7]): 30 nM | IC50 (glucocorticoid receptor [1]): > 1000 nM
Structure (SMILES): COC(=O)[C@@]1(O)CCC2C3CCC4=CC(=O)C=C[C@]4(C)C3[C@@H](O)C[C@@]21C (some centres unmarked) [Δ1-CA-Me GYKI-24776, Δ^1-CA, methyl ester]

IC50 (transcortin (CBG); [6]): 272 ± 27 nM | IC50 (transcortin (CBG); [7]): 270 nM | IC50 (glucocorticoid receptor [1]): 4 nM
Structure (SMILES): CCOC(=O)O[C@]1(C(=O)OCCl)CC[C@H]2[C@@H]3CCC4=CC(=O)C=C[C@]4(C)[C@H]3[C@@H](O)C[C@@]21C [Loteprednol etabonate, chloromethyl 17α-ethoxycarbonyloxy-11β-hydroxyandrosta-1,4-dien-3-one-17β-carboxylate]
logP [2]: 3.03 | Vasoconstriction activity (total score of 4 tests) ([3]; 0.1 mM, 2 hr after removal, 4 h application): 2 | Vasoconstriction activity (total score of 4 tests) ([3]; 0.1 mM, 4 hr after removal): 3 | Vasoconstriction activity (total score of 4 tests) ([3]; 0.1 mM, 6 hr after removal): 5 | Vasoconstriction activity (total score of 4 tests) ([3]; 0.1 mM, 8 hr after removal): 5 | Vasoconstriction activity (total score of 4 tests) ([3]; 0.1 mM, 10 hr after removal): 3 | Vasoconstriction activity (total score of 4 tests) ([3]; 0.1 mM, 16 hr after removal): 1 | Vasoconstriction activity (total score of 4 tests) ([3]; 0.1 mM, 18 hr after removal): 1 | Vasoconstriction activity (total score of 4 tests) ([3]; 0.1 mM, 24 hr after removal): 1 | Vasoconstriction activity (total score of 4 tests) ([3]; 1 mM, 2 hr after removal, 4 h application): 6 | Vasoconstriction activity (total score of 4 tests) ([3]; 1 mM, 4 hr after removal): 7 | Vasoconstriction activity (total score of 4 tests) ([3]; 1 mM, 6 hr after removal): 8 | Vasoconstriction activity (total score of 4 tests) ([3]; 1 mM, 8 hr after removal): 8 | Vasoconstriction activity (total score of 4 tests) ([3]; 1 mM, 10 hr after removal): 9 | Vasoconstriction activity (total score of 4 tests) ([3]; 1 mM, 16 hr after removal): 6 | Vasoconstriction activity (total score of 4 tests) ([3]; 1 mM, 18 hr after removal): 5 | Vasoconstriction activity (total score of 4 tests) ([3]; 1 mM, 24 hr after removal): 2 | Vasoconstriction activity alone (in words) ([3]; by itself, concentration range 0.1 to 1 mM, human skin): good vasoconstriction activity | Increase of vasoconstriction activity of LE by addition of the same amount of HC or PRN ([3]; co-administration of 0.1 mM HC or PRN): 60-80% | Increase of vasoconstriction activity of LE by addition of the same amount of HC or PRN ([3]; co-administration of 1 mM HC or PRN): 60-75% | Activity relative to hydrocortisone [4]: approximately 20 times | Intrinsic activity in in vitro receptor binding studies (in words) (glucocorticoid receptor [5]; Druzgala et al. 1991, [3H]-triamcinolone acetonide tracer, 10^−5M cortienic acid as competitor): intrinsically active | rBA (relative receptor binding affinity) (glucocorticoid receptor [5]; relative to dexamethasone = 100, average of all values if multiple available): 150

IC50 (transcortin (CBG); [6]): 52 ± 10 nM | IC50 (transcortin (CBG); [7]): 50 nM | IC50 (glucocorticoid receptor [1]): > 1000 nM
Structure (SMILES): C[C@]12C=CC(=O)C=C1CCC1C2[C@@H](O)C[C@@]2(C)C1CC[C@]2(O)C(=O)O (some centres unmarked) [Δ1-CA GYKI-24762, Δ^1-cortienic acid]

IC50 (transcortin (CBG); [6]): 117 ± 49 nM | IC50 (transcortin (CBG); [7]): 120 nM | IC50 (glucocorticoid receptor [1]): > 1000 nM
Structure (SMILES): C[C@]12CCC(=O)C=C1CCC1C2[C@@H](O)C[C@@]2(C)C1CC[C@]2(O)C(=O)O (stereo partly drawn) [Cortienic acid (CA) GYKI-24805, 11β,17α-dihydroxyandrost-4-en-3-one-17β-carboxylic acid]
